Reference: patent US20140158116A1, “INHIBITING TRPA1 FOR THE TREATMENT OF ASTHMA” (Cubist Pharmaceuticals, Inc., priority 2012, published 2014)

Experiments:
[1] = Single ascending dose Phase 1A study; type: in vivo, human; settings: healthy male volunteers; 6 ascending single doses
Text: A randomized, double-blind, placebo-controlled, cross-over, single dose, safety, tolerability and pharmacokinetic study of 6 ascending doses of the compound of Formula (Ia) was undertaken in two cohorts of healthy male volunteers. A total of eighteen eligible healthy mail volunteers were recruited utilizing an alternating panel design. The first cohort of nine subjects (Cohort 1) was sequentially enrolled into 3 of 6 dosing periods (Dose Levels 1, 3, and 5). The remaining cohort of nine subjects (Cohort 2) was enrolled in the other 3 dosing periods (Dose Levels 2, 4, and 6). Within each dosing period, subjects were randomly assigned 2:1 to the compound of Formula (I) (n=6) or placebo (n=3). Each subject received one dose of placebo and two different doses of the compound of Formula (I) over the course of their participation in all three dosing periods. Subjects were equally randomized to one of 3 possible sequences, namely 1) placebo, active, active, 2) active, placebo, active, and 3) active, active, placebo.

[2] = tested on: serum biomarkers of hepatotoxicity (ALT, AST, ALP, GGT); assay: Hepatotoxicity serum biomarker study in dogs, oral dose; type: in vivo, dog; settings: dogs; 50 mg/kg PO
Description: The compound of Formula (Ia) was orally dosed to […] at dose levels of 5, 15 or 50 mg/kg using 30% Sulfobutylether β-cyclodextrin as the vehicle for assessment of safety as measured via serum chemistry biomarkers of hepatotoxicity or bile duct injury FIG. 5A, showing measurements of alanine aminotranferease [ALT], aspartate aminotranferease [AST], alkaline phosphatase [ALP] and gamma-glutamyl transferase [GGT] in the dogs at each dose level (each bar represents a measurement from 1 dog in the study). […] For example, the ALT levels were elevated up to about 60-fold in male dogs and up to about 130-fold in female beagle dogs following a single PO dose of 50 mg/kg.

[3] = molecular target: hNaV1.2 (Homo sapiens, UniProt Q99250); assay: Patch clamp selectivity, hNaV1.2; type: cell-based
Sequence of hNaV1.2 (Q99250 whole entry): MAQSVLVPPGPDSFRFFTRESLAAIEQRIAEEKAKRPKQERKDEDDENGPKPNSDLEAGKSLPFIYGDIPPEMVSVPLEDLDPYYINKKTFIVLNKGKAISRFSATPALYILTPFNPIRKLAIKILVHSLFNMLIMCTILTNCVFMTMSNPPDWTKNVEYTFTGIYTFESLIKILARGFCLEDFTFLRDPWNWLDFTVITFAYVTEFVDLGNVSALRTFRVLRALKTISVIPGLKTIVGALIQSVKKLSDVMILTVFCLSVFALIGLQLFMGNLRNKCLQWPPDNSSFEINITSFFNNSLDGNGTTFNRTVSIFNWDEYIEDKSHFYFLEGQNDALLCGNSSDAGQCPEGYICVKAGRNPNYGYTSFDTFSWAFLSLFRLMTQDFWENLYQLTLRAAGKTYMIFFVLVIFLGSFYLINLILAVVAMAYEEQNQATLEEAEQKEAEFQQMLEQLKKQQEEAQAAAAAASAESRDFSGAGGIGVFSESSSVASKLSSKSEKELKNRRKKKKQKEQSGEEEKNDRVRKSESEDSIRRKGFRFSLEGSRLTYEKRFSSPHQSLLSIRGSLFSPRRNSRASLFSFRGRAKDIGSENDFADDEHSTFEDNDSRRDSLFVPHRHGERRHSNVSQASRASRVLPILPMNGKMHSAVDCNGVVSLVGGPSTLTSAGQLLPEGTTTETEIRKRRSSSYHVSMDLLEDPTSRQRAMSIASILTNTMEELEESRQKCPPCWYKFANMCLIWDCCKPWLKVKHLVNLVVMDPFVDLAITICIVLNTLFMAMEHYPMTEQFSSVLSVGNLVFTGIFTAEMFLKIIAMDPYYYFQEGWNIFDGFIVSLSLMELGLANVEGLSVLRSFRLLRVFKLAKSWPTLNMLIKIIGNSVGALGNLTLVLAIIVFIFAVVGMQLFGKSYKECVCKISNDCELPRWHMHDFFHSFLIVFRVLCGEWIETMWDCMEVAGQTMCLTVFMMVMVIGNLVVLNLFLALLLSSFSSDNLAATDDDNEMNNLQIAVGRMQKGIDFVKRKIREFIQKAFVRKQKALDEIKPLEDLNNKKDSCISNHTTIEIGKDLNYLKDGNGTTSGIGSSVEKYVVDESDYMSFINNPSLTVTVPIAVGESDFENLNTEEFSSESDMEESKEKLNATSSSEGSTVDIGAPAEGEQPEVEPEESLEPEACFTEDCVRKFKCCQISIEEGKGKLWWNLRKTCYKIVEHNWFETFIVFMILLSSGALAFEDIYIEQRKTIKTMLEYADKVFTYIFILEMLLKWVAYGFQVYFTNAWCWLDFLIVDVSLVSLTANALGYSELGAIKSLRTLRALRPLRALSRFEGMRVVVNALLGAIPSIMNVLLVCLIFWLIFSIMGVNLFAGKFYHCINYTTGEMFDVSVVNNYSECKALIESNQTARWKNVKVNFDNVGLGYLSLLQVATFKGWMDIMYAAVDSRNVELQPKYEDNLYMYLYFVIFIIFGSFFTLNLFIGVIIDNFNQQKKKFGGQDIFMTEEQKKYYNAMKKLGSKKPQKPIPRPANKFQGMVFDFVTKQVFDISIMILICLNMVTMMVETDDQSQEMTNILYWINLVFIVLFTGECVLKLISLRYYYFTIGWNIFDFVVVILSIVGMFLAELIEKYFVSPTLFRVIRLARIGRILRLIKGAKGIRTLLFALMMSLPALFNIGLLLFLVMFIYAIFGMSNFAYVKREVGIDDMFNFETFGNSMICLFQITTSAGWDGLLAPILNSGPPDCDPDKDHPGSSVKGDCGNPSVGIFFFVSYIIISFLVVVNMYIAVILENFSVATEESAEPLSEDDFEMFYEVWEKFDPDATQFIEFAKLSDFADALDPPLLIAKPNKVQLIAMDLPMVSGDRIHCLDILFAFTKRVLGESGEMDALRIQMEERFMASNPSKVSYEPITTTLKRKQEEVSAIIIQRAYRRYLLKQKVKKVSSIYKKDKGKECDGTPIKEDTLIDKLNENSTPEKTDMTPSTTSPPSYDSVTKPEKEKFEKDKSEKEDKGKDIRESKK
Description: Data for TRPA1 inhibition and the selectivity of TRPA1 inhibition was obtained by this method for the compound of Formula (Ia) and included in Table 1 and Table 2. All currents were recorded in whole-cell configuration using EPC-9 and EPC-10 amplifiers and Patchmaster software (HEKA). […] The standard pipette solution consisted of 140 mM CsAsp, 10 mM EGTA, 10 mM HEPES, 2.27 mM MgCl2, 1.91 mM CaCl2, 4 mM MgATP, and 0.1-0.3 mM Na2GTP, with pH adjusted to 7.2 with CsOH. In addition, a solution containing 145 mM CsCl, 10 mM HEPES, 10 mM EGTA and 1 mM MgCl2 (pH 7.2 adjusted with CsOH) can be used. The standard bath solution contained 150 mM NaCl, 10 mM HEPES, 10 mM glucose, 4.5 mM KCl, 1 mM EGTA, 3 mM MgCl2, with pH adjusted to 7.4 with NaOH. In some instances, 2 mM CaCl2 was added in place of EGTA and the concentration of MgCl2 was reduced to 1 mM.
Data were collected either by continuous recordings at −60 mV or by applying voltage ramps from a holding potential of 0 mV every 4 s. […] Inward and outward currents were analyzed from the ramps at −80 and 80 mV, respectively. […]
Solutions were switched using a gravity-fed continuous focal perfusion system. […] Temperatures were confirmed using a thermistor (Warner Instruments, TA-29), with temperatures at the recorded cell estimated to be within +/−2° C. of those reported. […]

[4] = tested on: CFA-induced cold allodynia; assay: Complete Freund's Adjuvant (CFA) cold allodynia rodent pain model; type: in vivo; settings: vehicle 19.8
Description: The compound of Formula (Ia) is also active in rodent models of pain in vivo induced by cold allodynia following chronic Complete Freund's Adjuvant-induced inflammation, as described in Example 6. […] The compound of Formula (Ia), the comparator compound of Formula (II) and ketoprofen were tested by the CFA-induced pain test method reported in del Camino et al., J. Neurosci., 30(45):15165-15174, incorporated herein by reference in its entirety. Briefly, the hind paw was sensitized to cold temperature (allodynic), by administering 0.1 mL of Complete Freund's Adjuvant (CFA) to the left hind paw. 2-3 days later, the time taken for the animal to lift its CFA-injected paw was recorded compared to its un-injected normal right hind paw. […] To avoid tissue damage the maximum cut-off time was 5 minutes. Animals that were allodynic (average PWL to the first three pain behaviors <150 seconds for the CFA-injected hind paw: ˜≧50% difference between the normal and CFA-injected paw) were included in the study and subsequently randomized across treatment groups. The following day, the animals were dosed under blinded conditions. Following the 1-2 hour pre-treatment time, the post-dose PWL readings were again taken. The efficacy of the drug treatment was assessed by comparing the PWL in the drug treatment animals to those animals that received the vehicle.

## C[C@H]1CCCN1c1ncc(-c2cccc(NC(=O)Cn3cnc4c3c(=O)n(C)c(=O)n4C)n2)cn1 [Formula (Ia)]
[1]
  safety signals: no safety signals seen that were attributable to the compound of Formula (Ia)
[2]
  effect on serum biomarkers of hepatotoxicity: did not elevate serum biomarkers of hepatotoxicity or acute phase response
[3]
  Fold Selectivity Compared to TRPA1: >100 fold
[3]; Voltage, Peak Inward (0 mV)
  IC50: > 10 µM
[4]; 1 mg/kg i.p., cold plate
  Change in Paw Withdrawal Latency: 38.4
[4]; 5 mg/kg i.p.
  Change in Paw Withdrawal Latency: 45.0
[4]; 10 mg/kg i.p.
  Change in Paw Withdrawal Latency: 117.6
[4]; 30 mg/kg i.p.
  Change in Paw Withdrawal Latency: 134.4
[4]; 50 mg/kg i.p.
  Change in Paw Withdrawal Latency: 177.8
